Measured values taken from patent US12121510B2 (Cedars-Sinai Medical Center, priority 2016, dated 2024).
Read-outs that look alike come from different tables or passages of the source.

Key:
[1] = system: SKRC; experiment: Renal cancer cell growth IC50 (crystal violet); type: cell-based, human
Excerpt: (§1) Exemplary Embodiments are generally performed as follows, unless otherwise noted. Simvastatin is purchased from Ark Pharm, Inc. (Arlington Heights, IL). Cisplatin (CIS) is purchased from MedKoo Biosciences, Inc. (Chapel Hill, NC). Dihydroartemisinin is purchased from TCI America (Portland, OR). All other chemicals and reagents are purchased from standard sources such as Sigma-Aldrich and/or VWR and are of highest quality available. Puromycin dihydrochloride was purchased from Alfa Aesar (Tewksbury, MA). Deionized water ([…]) used for making solutions is obtained from Milli-Q Direct Ultrapure Water System from Millipore (Billerica, MA, USA). All intermediates are characterized by 1H NMR and mass analysis and the purity of compounds are analyzed by HPLC. 1H NMR data are collected on Bruker 400 MHz spectrometers using standard parameters; chemical shifts are reported in ppm (δ) in reference to residual non-deuterated solvent. ESI mass spectroscopy analysis is performed using a Thermo Fisher LTQ Orbitrap Elite system. IC50 is the half maximal inhibitory concentration and determined is determined by crystal violet assay unless otherwise noted.
(§2) The crystal violet assay is performed as follows, unless otherwise noted. Cell lines are supplemented with RPMI 1640 medium, 10% fetal bovine serum, 1% PenStrep, and placed in a humidified atmosphere containing 5% CO2 at 37° C. 5,000 cells/well renal cancer cells and 10,000 cells/well lymphoma cells are seeded in 96 well plates in 100 microliter medium/per well for 24 h. […] Renal cancer cells are fixed with 3.7% paraformaldehyde for 15 minutes and are stained with Crystal violet solution (0.5% in 25% methanol) for 30 minutes. After rinsing with water cell layers are dried and decolorized with Sorenson citrate with shaking for 20 minutes. Light absorption of the extracted supernatant is read at 595 nm. Lymphoma cell growth was evaluated using MTT and cells are incubated for 4 hours. 100 microliters of isopropanol is added, and the extracted supernatant fraction is read at absorption maximum of 595 nm.
(§3) Standard cell culture conditions typically are RPMI 1640 medium, 10% fetal bovine serum, 1% PenStrep, and are performed in a humidified atmosphere containing 5% CO2 at 37° C. Generally, 5,000 cells/well-10,000 cells/well are seeded in 96 well plates in 100 microliter medium/per well for 24 h, or as described in Example 16, unless otherwise noted. Certain cells require specialized media, growth factors, antibiotics, or culture condition adjustments, as will be apparent to a person of ordinary skill in the art.
as §2, with “Cell” for “The crystal violet assay is performed as follows, unless otherwise noted. Cell”, “cultured as follows. […]” for “supplemented with RPMI 1640 medium, 10% fetal bovine serum, 1% PenStrep, and placed in a humidified atmosphere containing 5% CO2 at 37° C.”, “is” for “was”

[2] = system: Caki-1; experiment: Renal cancer cell growth IC50 (crystal violet); type: cell-based, human; conditions: Caki-1
Excerpt: as §1, §2, §3
as §2, with “Cell” for “The crystal violet assay is performed as follows, unless otherwise noted. Cell”, “cultured as follows. […]” for “supplemented with RPMI 1640 medium, 10% fetal bovine serum, 1% PenStrep, and placed in a humidified atmosphere containing 5% CO2 at 37° C.”, “is” for “was”

[3] = system: o-786; experiment: Renal cancer cell growth IC50 (crystal violet); type: cell-based, human
Excerpt: as §1, §2, §3
as §2, with “Cell” for “The crystal violet assay is performed as follows, unless otherwise noted. Cell”, “cultured as follows. […]” for “supplemented with RPMI 1640 medium, 10% fetal bovine serum, 1% PenStrep, and placed in a humidified atmosphere containing 5% CO2 at 37° C.”, “is” for “was”

[4] = system: ACHN; experiment: Renal cancer cell growth IC50 (crystal violet); type: cell-based, human
Excerpt: as §1, §2, §3
as §2, with “Cell” for “The crystal violet assay is performed as follows, unless otherwise noted. Cell”, “cultured as follows. […]” for “supplemented with RPMI 1640 medium, 10% fetal bovine serum, 1% PenStrep, and placed in a humidified atmosphere containing 5% CO2 at 37° C.”, “is” for “was”

[5] = system: MIAPaCa II; experiment: Cancer cell growth IC50 / sensitization (crystal violet); type: cell-based; conditions: Example 15
Excerpt: as §1
The crystal violet assay is performed as follows, unless otherwise noted. Cell lines are supplemented with RPMI 1640 medium, 10% fetal bovine serum, 1% PenStrep, and placed in a humidified atmosphere containing 5% CO2 at 37° C. 5,000 cells/well renal cancer cells and 10,000 cells/well lymphoma cells are seeded in 96 well plates in 100 microliter medium/per well for 24 h. […] Renal cancer cells are fixed with 3.7% paraformaldehyde for 15 minutes and are stained with Crystal violet solution (0.5% in 25% methanol) for 30 minutes. After rinsing with water cell layers are dried and decolorized with Sorenson citrate with shaking for 20 minutes. Light absorption of the extracted supernatant is read at 595 nm. Lymphoma cell growth was evaluated using MTT and cells are incubated for 4 hours. 100 microliters of isopropanol is added, and the extracted supernatant fraction is read at absorption maximum of 595 nm. […]

[6] = system: Ramos, a B-cell lymphoma, cultured as 3-D spheroids; experiment: Cell viability IC50 in 3-D spheroids; type: cell-based, human; conditions: Ramos 3-D spheroids; 72 h; single agent
Excerpt: as §1
Cancer cells were Ramos, a B-cell lymphoma, cultured as 3-D spheroids, cultured according to their standard culturing conditions.

[7] = system: human kidney carcinoma cell lines (ACHN, Caki-1, 0-786, SKRC); experiment: Growth IC50 in kidney carcinoma cell line panel; type: cell-based; conditions: all kidney cancer cell lines; 72 hours; read-out: IC50 across kidney cancer cell lines
Experimental: as §2
The significance for all results was p<0.0001.

[8] = system: normal mouse kidney and liver; experiment: Immunohistochemical staining of normal kidney and liver; type: in vivo; conditions: mice harbored with human Burkitt's lymphoma
Excerpt: These normal kidney and liver tissues were obtained from mice harbored with human Burkitt's lymphoma.

[9] = system: YTMLC; experiment: Cell proliferation IC50, Crystal Violet assay; type: cell-based, human; conditions: 72 h, single agent, mean ± SEM
Excerpt: as §1
(§4) H446 is a SCLC cell line. […] Drugs tested and compared include CIS and DZ-CIS ester. Each drug is used as single agent.

[10] = system: H446; experiment: Cell proliferation IC50, Crystal Violet assay; type: cell-based, human; conditions: SCLC H446; 72 h; single agent; mean ± SEM
Excerpt: as §1, §4

[11] = system: 95D; experiment: Cell proliferation IC50, Crystal Violet assay; type: cell-based, human; conditions: 95D (Met); 72 h; single agent; mean ± SEM
Excerpt: as §1, §4

[12] = system: 95C; experiment: Cell proliferation IC50, Crystal Violet assay; type: cell-based, human; conditions: 95C (Non-Met); 72 h; single agent; mean ± SEM
Excerpt: as §1, §4

[13] = system: OVCA 433; experiment: Ovarian cancer cell growth IC50 (crystal violet); type: cell-based, human
Excerpt: as §1, §3
(§5) OV90 and OVCA433 are grown in vitro according to their standard culturing conditions, and an assay such as the crystal violet assay is performed.

[14] = system: OV90; experiment: Ovarian cancer cell growth IC50 (crystal violet); type: cell-based, human
Excerpt: as §1, §3, §5

[15] = system: Ramos; experiment: Lymphoma cell growth IC50 (MTT); type: cell-based, human
Excerpt: as §1, §2, §3
as §2, with “Cell” for “The crystal violet assay is performed as follows, unless otherwise noted. Cell”, “cultured as follows. […]” for “supplemented with RPMI 1640 medium, 10% fetal bovine serum, 1% PenStrep, and placed in a humidified atmosphere containing 5% CO2 at 37° C.”, “is” for “was”

[16] = system: Raji; experiment: Lymphoma cell growth IC50 (MTT); type: cell-based, human
Excerpt: as §1, §2, §3
as §2, with “Cell” for “The crystal violet assay is performed as follows, unless otherwise noted. Cell”, “cultured as follows. […]” for “supplemented with RPMI 1640 medium, 10% fetal bovine serum, 1% PenStrep, and placed in a humidified atmosphere containing 5% CO2 at 37° C.”, “is” for “was”

[17] = system: CA-46; experiment: Lymphoma cell growth IC50 (MTT); type: cell-based, human
Excerpt: as §1, §2, §3
as §2, with “Cell” for “The crystal violet assay is performed as follows, unless otherwise noted. Cell”, “cultured as follows. […]” for “supplemented with RPMI 1640 medium, 10% fetal bovine serum, 1% PenStrep, and placed in a humidified atmosphere containing 5% CO2 at 37° C.”, “is” for “was”

[18] = system: Daudi; experiment: Lymphoma cell growth IC50 (MTT); type: cell-based, human
Excerpt: as §1, §2, §3
as §2, with “Cell” for “The crystal violet assay is performed as follows, unless otherwise noted. Cell”, “cultured as follows. […]” for “supplemented with RPMI 1640 medium, 10% fetal bovine serum, 1% PenStrep, and placed in a humidified atmosphere containing 5% CO2 at 37° C.”, “is” for “was”

[19] = system: Namalwa; experiment: Lymphoma cell growth IC50 (MTT); type: cell-based, human
Excerpt: as §1, §2, §3
as §2, with “Cell” for “The crystal violet assay is performed as follows, unless otherwise noted. Cell”, “cultured as follows. […]” for “supplemented with RPMI 1640 medium, 10% fetal bovine serum, 1% PenStrep, and placed in a humidified atmosphere containing 5% CO2 at 37° C.”, “is” for “was”

[20] = 72 hours, read-out: Half maximal inhibitory concentration (IC50)

For `N.N.[Cl][Pt][Cl]` [CIS, cis-diamminedichloridoplatinum (II)], the IC50 [1, 20] was greater than 64 µM, the IC50 ([1]; Example 15, read-out: IC50) was greater than 64 µM and the IC50 [2, 20] was greater than 64 µM. For the same compound, the IC50 ([2]; Example 15, read-out: IC50) was greater than 64 µM, the IC50 ([3]; Example 15, O-786, read-out: IC50) was greater than 64 µM and the IC50 ([3]; o-786, 72 hours, read-out: Half maximal inhibitory concentration (IC50)) was greater than 64 µM. For the same compound, the IC50 [4, 20] was greater than 64 µM, the IC50 ([4]; Example 15, read-out: IC50) was greater than 64 µM and the IC50 [5] was greater than 64 µM. The IC50 [6] was 81.5 µM, the IC50 [7] was greater than 64 µM and the “Apoptosis markers (cleaved caspas-3 and M30) / damage in normal kidney and liver” value [8] was “elevated”. For the same compound, the IC50 [9] was 16.2 ± 1 µM, the IC50 [10] was 107.3 ± 1 µM and the IC50 [11] was greater than 100 µM. It also gave an IC50 [12] of 12.7 ± 1 µM, an IC50 ([13]; Example 15, OV433) greater than 64 µM and an IC50 ([13]; OVCA 433, 72 h) greater than 64 µM. It also gave an IC50 ([14]; 72 h) greater than 64 µM, an IC50 ([14]; Example 15) greater than 64 µM and an IC50 [15, 20] greater than 64 µM. The IC50 ([15]; Example 15, read-out: IC50) was greater than 64 µM, the IC50 [16, 20] was greater than 64 µM and the IC50 ([16]; Example 15, read-out: IC50) was greater than 64 µM. The IC50 ([17]; CA-46, 72 hours, read-out: Half maximal inhibitory concentration (IC50)) was greater than 64 µM, the IC50 ([17]; Example 15, CA46, read-out: IC50) was greater than 64 µM and the IC50 [18, 20] was greater than 64 µM. The IC50 ([18]; Example 15, read-out: IC50) was greater than 64 µM, the IC50 [19, 20] was greater than 64 µM and the IC50 ([19]; Example 15, read-out: IC50) was greater than 64 µM.
